Columns and labels:
[1] = test system: E. coli SR481 (aroA-) carrying pMON8105; test: Growth on minimal medium containing glyphosate; format: cell-based
Description: (§1) Chromosomal DNA isolated from the E. coli strain SR20 (GM42 hfr, his-, dam3-) was digested completely with MboI. The MboI fragments were cloned into the BglII site of plasmid pMON9564. The BglII site is in a multilinker located upstream of the promoterless petunia EPSPS coding sequence which had been tailored for expression in E. coli. The ligation mixture was used to transform E. coli strain SR481, the aroA- variant lacking endogenous EPSPS activity. Forty-one colonies were obtained which contained MboI fragments with sufficient promoter activity to express the Petunia EPSPS cDNA, complementing the aroA defect in SR481 and supporting cell growth on minimal medium. The 41 colonies were streaked individually onto MOPS minimal medium containing glyphosate at 1, 5, 10, 15 and 20 μM concentrations. The amount of cell growth on increasing concentrations of glyphosate was used as a measure of the relative promoter strength of each MboI fragment expressing the petunia EPSPS coding sequence. To further characterize each of the MboI promoter fragments, plasmid miniprep DNA was prepared by the alkaline lysis method from each of the 41 colonies and was digested individually with EcoRI, BamHI, HindIII, ClaI and NcoI. Those restriction enzymes were chosen because they cut within, or flank the petunia EPSPS coding sequence and would be used for mobilizing mutagenized fragments. Therefore, ideal promoter fragments would not contain restriction sites for any of those enzymes. There were 8 MboI fragments with varying degrees of promoter activity which lacked restriction sites for the enzymes listed above. Two of them, pMON8105 and pMON8143, were selected for further characterization. Both plasmids complemented the aroA defect and supported the growth of SR481 on minimal medium containing up to 1 mM (pMON8105) and 20 mM (pMON8143) glyphosate.

[2] = test system: E. coli SR481 (aroA-) carrying pMON8143; test: Growth on minimal medium containing glyphosate; format: cell-based
Description: as §1

[3] = test system: tobacco plants transformed with glyphosate-tolerant petunia EPSP synthase gene (pMON567); test: Relative effect of glyphosate spraying on transformed tobacco; format: in vivo, Nicotiana tobacam CV H425; design: key: 0 = total kill, 10 = normal unsprayed plant; conditions: GT, 0 total kill, 10 no effect, best transformant
Description: Plasmid pMON530 DNA was digested with BglII and ClaI, to which was added the 330 bp BglII-EcoRI EPSP synthase 5' fragment from pMON536 and purified 1.4 kb EcoRI-ClaI EPSP synthase 3' fragment from pMON9566 and then treated with T4 DNA ligase. Following transformation a plasmid was isolated that carried the intact glycine (101) to alanine variant EPSP synthase coding sequence of petunia (with the coding sequence for the chloroplast transmit peptide) adjacent to the CaMV35S promoter. This plasmid was designated pMON567. Plasmid pMON567 was inserted into A. tumefaciens cells that contained helper plasmid pGV3111-SE.
A culture of A. tumefaciens cells containing pMON567/pGV3111-SE was contacted with leaf disks taken from tobacco plants (Nicotiana tobacam CV H425) as described by Horsch (1985). The Agrobacterium cells inserted the variant EPSP synthase gene into the chromosomes of the plant cells. Plant cells resistant to kanamycin were selected and regenerated into differentiated plants by the procedure of Horsch (1985).
Progeny of these plants were propagated and grown to a rosette diameter of about 10 cm corresponding to a plant age of about four weeks. The plants were sprayed with glyphosate at levels corresponding to 0.4, 2.0 and 3.6 pounds acid equiv./acre. The effect of glyphosate on the transformed plants were scored at 7, 14 and 28 days. The effect was translated to a numerical scale of 0-10 in which 0 represents total kill and 10 is the normal, unsprayed plant. […] The values represent the best transformant for both wild-type EPSP synthase and glyphosate-tolerant EPSP synthase genes.

[4] = target: variant maize preenzyme product of pMON8617 (glycine to alanine and glycine to aspartate) (Zea mays, UniProt A0A1D6NVZ6, G163A/G206D); test: EPSP synthase activity of in vitro translation product; format: biochemical
Description: (§2) To an assay mix (40 μl) containing shikimate-3-phosphate (2 mM), ^14 C-phosphoenolpyruvate (1 mM, 1.2 mCi/mmol), ammonium molybdate (0.1 mM), potassium fluoride (5 mM) in 50 mM HEPES-KOH, pH 7, was added the extract and incubated at 25° C. for 2 mins. The reaction was quenched by the addition of 50 μl of 50 μl of 90% ethanol/0.1M acetic acid, pH 4.5. 70 μl of the reaction mixture was loaded on a SynchroPak AX100 HPLC column (0.4×25 cm) and the column was eluted with 0.5M potassium phosphate, pH 5.5 at 1 ml/min. The radioactivity of the eluent was monitored using a Radiomatic Flo-One Beta Instrument. (Radiomatics, Fla.). The EPSP synthase activity was determined by measurement of the conversion of ^14 C-PEP to ^14 C-EPSP synthase, both of which are resolved under the above conditions of chromatography. The protein content of the extract was determined by the method of Bradford (Biorad Labs, Calif.). The specific activity of the extract is expressed as nanomoles of EPSP synthase formed/min/mg protein.
(§3) The linearized plasmid DNA was transcribed in vitro with T7 polymerase essentially as described by Krieg et al. (1984). The standard reaction buffer contained 40 mM Tris-HCl (pH 7.9), 6 mM MgCl2, 10 mM dithiothreitol, 2 mM spermidine, 80 U RNAsin ribuonuclease inhibitor, 0.5 mM each of ATP, GTP, CTP and UTP, in a final reaction volume of 100 μl. The final RNA pellet was resuspended in 20 μl of sterile water and stored at -80° C. A standard translation reaction contained 100 μl of nuclease-treated rabbit reticulocyte lysate, 5.7 μl of a 19-amino acid mixture (minus methionine) at 1 mM each, 5.7 μl of RNA (total RNA transcripts derived from 0.63 μg of plasmid DNA), 16 μl RNAsin (20U/μl) ribonuclease inhibitor, and 58.3 μl of [^35 S] methionine (14-15 mCi/ml). The in vitro translation products were stored frozen at -80° C.
(§4) The products of the in vitro translation were then assayed for EPSP synthase activity as described herein.

[5] = target: wild type maize pre-EPSP synthase (pMON9951 product) (Zea mays, UniProt A0A1D6NVZ6); test: as above; format: biochemical; conditions: 1.0 mM glyphosate
Description: as §2, §3, §4

variant maize preenzyme product of pMON8617 (glycine to alanine and glycine to aspartate), sequence (A0A1D6NVZ6 entry or part of it G163A/G206D): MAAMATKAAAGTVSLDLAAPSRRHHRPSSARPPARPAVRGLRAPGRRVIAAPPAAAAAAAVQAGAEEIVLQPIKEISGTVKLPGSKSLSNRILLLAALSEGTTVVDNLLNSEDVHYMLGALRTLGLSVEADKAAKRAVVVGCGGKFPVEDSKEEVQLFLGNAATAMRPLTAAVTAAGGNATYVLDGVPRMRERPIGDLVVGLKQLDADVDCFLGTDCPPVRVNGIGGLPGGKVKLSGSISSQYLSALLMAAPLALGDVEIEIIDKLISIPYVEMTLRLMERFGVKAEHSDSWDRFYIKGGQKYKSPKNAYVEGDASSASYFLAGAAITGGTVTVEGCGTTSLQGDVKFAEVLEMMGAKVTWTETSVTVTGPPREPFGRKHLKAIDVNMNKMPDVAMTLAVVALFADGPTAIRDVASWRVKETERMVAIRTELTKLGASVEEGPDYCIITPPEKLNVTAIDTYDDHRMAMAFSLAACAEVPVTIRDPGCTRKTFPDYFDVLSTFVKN
wild type maize pre-EPSP synthase (pMON9951 product), sequence (A0A1D6NVZ6 1-506): as the sequence (A0A1D6NVZ6 entry or part of it G163A/G206D) above, with A163G, D206G counted along it

## O=C(O)CNCP(=O)(O)O [glyphosate, N-phosphonomethylglycine]
[1]; 1 mM glyphosate
  growth on 1 mM glyphosate: could not support the growth
[1]; minimal medium
  glyphosate concentration up to which growth on minimal medium is supported: up to 1 mM
[2]
  glyphosate concentration up to which growth on minimal medium is supported: ≤ 20 mM
[3]; 0.4 pounds/Acre, day 7
  Relative Effect of Glyphosate: 8.0
[3]; 0.4 pounds/Acre, day 14
  Relative Effect of Glyphosate: 8.0
[3]; 0.4 pounds/Acre, day 28
  Relative Effect of Glyphosate: 9.0
[3]; 2.0 pounds/Acre, day 7
  Relative Effect of Glyphosate: 8.0
[3]; 2.0 pounds/Acre, day 14
  Relative Effect of Glyphosate: 8.3
[3]; 2.0 pounds/Acre, day 28
  Relative Effect of Glyphosate: 7.0
[3]; 3.6 pounds/Acre, day 7
  Relative Effect of Glyphosate: 5.0
[3]; 3.6 pounds/Acre, day 14
  Relative Effect of Glyphosate: 7.4
[3]; 3.6 pounds/Acre, day 28
  Relative Effect of Glyphosate: 7.0
[4]; 1 mM glyphosate
  inhibition of EPSP synthase activity: only slight inhibition
[4]; 100 mM glyphosate
  inhibition of EPSP synthase activity: greater inhibition, but still showing detectable activity
[5]
  EPSP synthase activity in the presence of glyphosate: no activity was detected

Source: patent US5310667A (priority 1989, dated 1994)
